Earlier results in patent US20080009448A1, “Peptide Derivative” (priority 2006, published 2008).
Non-standard residues stand in square brackets, D forms with d. No end group written: not given here. βAla = NCCC(=O)O

Conditions: non-patent references 2-7, cited from earlier work

| Substance | anti-nociceptive activity compared with morphine on oral administration | anti-nociceptive activity compared with morphine on subcutaneous administration |
| --- | --- | --- |
| Y[dR]F[βAla] [TAPA] | almost equal | nine times stronger |
| Nα-amidine-[Tyr]-[D-Arg]-[Phe]-[N-Methyl-β-Ala]-OH [ADAMB] | about 3.8 times | about 23 times |
